Legend:
Experiment in all cases: ABPP chemical proteomics (LC-MS/MS) in HEK293T cells
Type in all cases: cell-based
[1] = molecular target: T1, MDC1 (Homo sapiens, UniProt Q14676); details: IMP-2586 labelling vs DMSO, 30 nM, 10 min, HEK293T (Table S4, Fig.5c)
T1 construct: endogenous in cells; host or cells: HEK293T
In short: (§1)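 Proteome-wide selectivity was profiled by competitive ABPP. Cells received […] and then activity-based probe for 1 h at 37 °C. Lysates were ligated to biotin capture tags, affinity-enriched and analysed by mass spectrometry.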

[2] = molecular target: T2, CNP (Homo sapiens, UniProt P09543); details: IMP-2586 labelling vs DMSO, 30 nM, 10 min, HEK293T (Table S4, Fig.5c)
T2 construct: endogenous in cells; host or cells: HEK293T
T2 sequence (P09543 whole entry): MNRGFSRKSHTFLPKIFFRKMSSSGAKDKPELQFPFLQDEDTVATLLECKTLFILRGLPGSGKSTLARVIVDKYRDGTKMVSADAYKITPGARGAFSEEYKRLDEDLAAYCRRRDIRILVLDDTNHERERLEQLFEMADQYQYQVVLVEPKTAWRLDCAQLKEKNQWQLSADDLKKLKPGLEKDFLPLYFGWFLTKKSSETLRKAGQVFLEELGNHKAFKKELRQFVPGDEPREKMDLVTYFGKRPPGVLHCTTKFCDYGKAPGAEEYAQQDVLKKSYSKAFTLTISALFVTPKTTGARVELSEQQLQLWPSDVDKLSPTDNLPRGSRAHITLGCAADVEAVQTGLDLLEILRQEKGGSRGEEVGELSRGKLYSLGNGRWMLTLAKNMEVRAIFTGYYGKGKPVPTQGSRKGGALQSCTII
In short: as §1

[3] = molecular target: T3, ASAH1 (Homo sapiens, UniProt Q13510); details: IMP-2586 labelling vs DMSO, 30 nM, 10 min, HEK293T (Table S4, Fig.5c)
T3 construct: endogenous in cells; host or cells: HEK293T
T3 sequence (Q13510 22-395): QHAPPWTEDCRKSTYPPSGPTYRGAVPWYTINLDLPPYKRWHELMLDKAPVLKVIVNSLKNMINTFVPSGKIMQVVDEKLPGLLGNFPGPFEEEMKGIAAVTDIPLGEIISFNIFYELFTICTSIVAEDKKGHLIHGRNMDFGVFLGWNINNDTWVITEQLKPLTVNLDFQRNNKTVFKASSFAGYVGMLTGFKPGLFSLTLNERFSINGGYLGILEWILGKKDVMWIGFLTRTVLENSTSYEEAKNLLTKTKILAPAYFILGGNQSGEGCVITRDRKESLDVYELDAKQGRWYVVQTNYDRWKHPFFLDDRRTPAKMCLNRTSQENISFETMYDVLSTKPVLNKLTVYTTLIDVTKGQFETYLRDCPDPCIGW
In short: as §1

[4] = molecular target: T4, RPS8 (Homo sapiens, UniProt P62241); details: IMP-2587 labelling vs DMSO, 30 nM, 10 min, HEK293T (Table S2, Fig.5a)
T4 construct: endogenous in cells; host or cells: HEK293T
In short: as §1

T1 sequence (Q14676 whole entry): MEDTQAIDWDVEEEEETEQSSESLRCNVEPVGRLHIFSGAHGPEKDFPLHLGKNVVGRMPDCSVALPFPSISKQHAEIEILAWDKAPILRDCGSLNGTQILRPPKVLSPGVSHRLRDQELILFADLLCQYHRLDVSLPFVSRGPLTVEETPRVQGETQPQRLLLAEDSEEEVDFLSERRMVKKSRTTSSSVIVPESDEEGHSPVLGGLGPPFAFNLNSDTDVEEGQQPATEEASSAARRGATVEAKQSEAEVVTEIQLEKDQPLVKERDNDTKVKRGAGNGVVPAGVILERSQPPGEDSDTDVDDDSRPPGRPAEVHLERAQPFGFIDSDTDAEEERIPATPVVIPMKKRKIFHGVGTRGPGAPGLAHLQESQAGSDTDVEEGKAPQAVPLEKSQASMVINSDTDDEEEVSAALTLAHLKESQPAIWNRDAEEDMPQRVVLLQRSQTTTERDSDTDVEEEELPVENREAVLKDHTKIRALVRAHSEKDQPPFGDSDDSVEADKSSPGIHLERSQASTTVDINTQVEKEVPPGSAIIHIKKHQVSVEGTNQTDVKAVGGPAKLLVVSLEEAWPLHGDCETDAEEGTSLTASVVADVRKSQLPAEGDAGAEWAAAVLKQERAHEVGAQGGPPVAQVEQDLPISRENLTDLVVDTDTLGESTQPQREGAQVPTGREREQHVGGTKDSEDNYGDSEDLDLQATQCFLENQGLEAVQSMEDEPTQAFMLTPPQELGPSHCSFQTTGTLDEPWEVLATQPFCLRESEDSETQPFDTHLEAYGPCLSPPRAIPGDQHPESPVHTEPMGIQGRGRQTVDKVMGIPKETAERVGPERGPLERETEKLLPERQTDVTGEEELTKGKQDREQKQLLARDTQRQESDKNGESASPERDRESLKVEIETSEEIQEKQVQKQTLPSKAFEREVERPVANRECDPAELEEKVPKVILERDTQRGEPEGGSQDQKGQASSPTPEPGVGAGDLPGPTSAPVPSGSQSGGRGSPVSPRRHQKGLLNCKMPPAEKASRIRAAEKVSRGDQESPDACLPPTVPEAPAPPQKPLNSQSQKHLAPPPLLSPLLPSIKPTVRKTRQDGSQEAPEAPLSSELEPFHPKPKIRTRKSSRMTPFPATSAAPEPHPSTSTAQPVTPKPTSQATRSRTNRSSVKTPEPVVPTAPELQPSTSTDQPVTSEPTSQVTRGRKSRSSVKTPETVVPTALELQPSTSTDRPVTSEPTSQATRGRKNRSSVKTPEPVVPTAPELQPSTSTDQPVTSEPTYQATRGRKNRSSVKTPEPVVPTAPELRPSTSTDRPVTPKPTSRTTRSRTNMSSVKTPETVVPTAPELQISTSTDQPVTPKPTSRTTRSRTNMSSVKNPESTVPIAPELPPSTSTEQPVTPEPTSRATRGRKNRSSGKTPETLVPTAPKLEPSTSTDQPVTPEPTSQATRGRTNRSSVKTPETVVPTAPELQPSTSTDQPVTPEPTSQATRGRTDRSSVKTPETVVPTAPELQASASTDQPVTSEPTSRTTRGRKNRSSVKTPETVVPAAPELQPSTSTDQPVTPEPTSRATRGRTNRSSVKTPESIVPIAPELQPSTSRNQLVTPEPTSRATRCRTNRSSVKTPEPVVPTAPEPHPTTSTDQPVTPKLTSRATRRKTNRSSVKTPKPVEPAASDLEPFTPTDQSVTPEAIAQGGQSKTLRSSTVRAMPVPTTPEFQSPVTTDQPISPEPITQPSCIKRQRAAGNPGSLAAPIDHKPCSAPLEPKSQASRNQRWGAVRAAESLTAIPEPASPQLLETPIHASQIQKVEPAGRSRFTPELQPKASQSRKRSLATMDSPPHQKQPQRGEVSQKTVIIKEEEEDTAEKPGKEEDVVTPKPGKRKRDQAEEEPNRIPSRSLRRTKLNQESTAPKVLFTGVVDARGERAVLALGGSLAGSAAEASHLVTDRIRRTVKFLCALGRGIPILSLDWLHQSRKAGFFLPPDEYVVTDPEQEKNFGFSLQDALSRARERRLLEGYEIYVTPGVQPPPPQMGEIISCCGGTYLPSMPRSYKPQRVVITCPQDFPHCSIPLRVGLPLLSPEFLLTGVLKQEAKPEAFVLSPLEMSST

Row | SMILES | Difference (log2 fold change of enrichment) [1] | Difference (log2 fold change of enrichment) [2] | Difference (log2 fold change of enrichment) [3] | Difference (log2 fold change of enrichment) [4]
1 | N#CN1CC[C@@H](NC(=O)c2cc(-c3ccccc3Oc3ccc(N=[N+]=[N-])cc3)n[nH]2)C1 [IMP-2586] | 0.38 | -0.68 | 1.08 | 
2 | C#Cc1cccc(-c2cc(NC(=O)CC3CCN(C#N)C3)on2)c1 (stereo not shown) [IMP-2587] |  |  |  | -0.44
